Holding throughout (type): functional
Test [1] deals with Cydia pomonella. Description: Insecticidal activity against Cydia pomonella (codling moth) assessed as mortality at 20 mg/kg diet topically measured after 5 days of continuous exposure (reference value: 23.3 +/- 18.5%). Conditions: topical, 120 h.
Test [2] deals with Cydia pomonella. Description: Antifeedant activity against Cydia pomonella (codling moth) at 2 mg/kg diet topically measured after 10 days of continuous exposure (reference value: 30 +/-20.9%).
Test [3] has as its system Cydia pomonella. Nature of the test: Antifeedant activity against Cydia pomonella (codling moth) at 20 mg/kg diet topically measured after 10 days of continuous exposure (reference value: 30 +/-20.9%).
For test [4], the system named is Cydia pomonella. Description: Insecticidal activity against Cydia pomonella (codling moth) assessed as mortality at 2 mg/kg diet topically measured after 5 days of continuous exposure (reference value: 23.3 +/- 18.5%). Conditions: topical, 120 h.
Test [5] has as its system Cydia pomonella. Description: Insecticidal activity against Cydia pomonella (codling moth) at 20 mg/kg assessed as growth regulation measured as number of head capsules of larvae after 10 days of continuous exposure (reference value: 1.3 +/- 0.3%).
In test [6] the test system is Cydia pomonella. Nature of the test: Insecticidal activity against Cydia pomonella (codling moth) at 20 mg/kg assessed as growth regulation measured as number of head capsules of larvae after 5 days of continuous exposure (reference value: 0.3 +/- 0.3%).
The subject of test [7] is Cydia pomonella. Nature of the test: Insecticidal activity against Cydia pomonella (codling moth) at 2 mg/kg assessed as growth regulation measured as number of head capsules of larvae after 10 days of continuous exposure (reference value: 1.3 +/- 0.3%).
Test [8] deals with Cydia pomonella. Nature of the test: Insecticidal activity against Cydia pomonella (codling moth) assessed as mortality at 2 mg/kg diet topically measured after 10 days of continuous exposure (reference value: 43.3 +/- 26%). Conditions: topical, 240 h.
The subject of test [9] is Cydia pomonella. Nature of the test: Antifeedant activity against Cydia pomonella (codling moth) at 20 mg/kg diet topically measured after 5 days of continuous exposure (reference value: 30 +/-20.9%).
In test [10] the test system is Cydia pomonella. Nature of the test: Antifeedant activity against Cydia pomonella (codling moth) at 2 mg/kg diet topically measured after 5 days of continuous exposure (reference value: 30 +/-20.9%).
For test [11], the system named is Cydia pomonella. Description: Insecticidal activity against Cydia pomonella (codling moth) at 2 mg/kg assessed as growth regulation measured as number of head capsules of larvae after 5 days of continuous exposure (reference value: 0.3 +/- 0.3%).
For test [12], the system named is Cydia pomonella. Nature of the test: Insecticidal activity against Cydia pomonella (codling moth) assessed as mortality at 20 mg/kg diet topically measured after 10 days of continuous exposure (reference value: 43.3 +/- 26%). Conditions: topical, 240 h.
The test system of test [13] is Cydia pomonella. Nature of the test: Insecticidal activity against Cydia pomonella (codling moth) assessed as mortality at 80 mg/kg diet topically measured after 10 days of continuous exposure (reference value: 3.3 +/- 3.3%). Conditions: topical, 240 h.
The subject of test [14] is Cydia pomonella. Nature of the test: Insecticidal activity against Cydia pomonella (codling moth) at 20 mg/kg assessed as growth regulation measured as number of head capsules of larvae after 10 days of continuous exposure Rvb = (1.5 +/- 0.2%).
Test [15] relates to Cydia pomonella. Description: Insecticidal activity against Cydia pomonella (codling moth) assessed as mortality at 80 mg/kg diet topically measured after 5 days of continuous exposure (reference value: 0%). Conditions: topical, 120 h.
For test [16], the system named is Cydia pomonella. Nature of the test: Insecticidal activity against Cydia pomonella (codling moth) assessed as mortality at 20 mg/kg diet topically measured after 10 days of continuous exposure (reference value: 3.3 +/- 3.3%). Conditions: topical, 240 h.
The test system of test [17] is Cydia pomonella. Nature of the test: Insecticidal activity against Cydia pomonella (codling moth) assessed as mortality at 40 mg/kg diet topically measured after 5 days of continuous exposure (reference value: 0%). Conditions: topical, 120 h.
Test [18] concerns Cydia pomonella. Description: Antifeedant activity against Cydia pomonella (codling moth) at 80 mg/kg diet topically measured after 5 days of continuous exposure (reference value: 6.7 +/- 6.7%).
For test [19], the system named is Cydia pomonella. Description: Insecticidal activity against Cydia pomonella (codling moth) at 40 mg/kg assessed as growth regulation measured as number of head capsules of larvae after 10 days of continuous exposure Rvb = (1.5 +/- 0.2%).
Test [20] relates to Cydia pomonella. Nature of the test: Insecticidal activity against Cydia pomonella (codling moth) at 20 mg/kg assessed as growth regulation measured as number of head capsules of larvae after 5 days of continuous exposure (reference value: 0.2 +/- 0.2%).
The test system of test [21] is Cydia pomonella. Nature of the test: Insecticidal activity against Cydia pomonella (codling moth) at 80 mg/kg assessed as growth regulation measured as number of head capsules of larvae after 10 days of continuous exposure Rvb = (1.5 +/- 0.2%).
Test [22] concerns Cydia pomonella. Nature of the test: Insecticidal activity against Cydia pomonella (codling moth) at 80 mg/kg assessed as growth regulation measured as number of head capsules of larvae after 5 days of continuous exposure (reference value: 0.2 +/- 0.2%).
Test [23] concerns Cydia pomonella. Nature of the test: Insecticidal activity against Cydia pomonella (codling moth) assessed as mortality at 20 mg/kg diet topically measured after 5 days of continuous exposure (reference value: 0%). Conditions: topical, 120 h.
Test [24] relates to Cydia pomonella. Nature of the test: Insecticidal activity against Cydia pomonella (codling moth) at 40 mg/kg assessed as growth regulation measured as number of head capsules of larvae after 5 days of continuous exposure (reference value: 0.2 +/- 0.2%).
Test [25] has as its system Cydia pomonella. Nature of the test: Antifeedant activity against Cydia pomonella (codling moth) at 40 mg/kg diet topically measured after 5 days of continuous exposure (reference value: 6.7 +/- 6.7%).
Test [26] deals with Cydia pomonella. Description: Antifeedant activity against Cydia pomonella (codling moth) at 20 mg/kg diet topically measured after 10 days of continuous exposure (reference value: 6.7 +/- 6.7%).
For test [27], the system named is Cydia pomonella. Description: Antifeedant activity against Cydia pomonella (codling moth) at 40 mg/kg diet topically measured after 10 days of continuous exposure (reference value: 6.7 +/- 6.7%).
In test [28] the test system is Cydia pomonella. Nature of the test: Antifeedant activity against Cydia pomonella (codling moth) at 20 mg/kg diet topically measured after 5 days of continuous exposure (reference value: 6.7 +/- 6.7%).
Test [29] deals with Cydia pomonella. Nature of the test: Insecticidal activity against Cydia pomonella (codling moth) assessed as mortality at 40 mg/kg diet topically measured after 10 days of continuous exposure (reference value: 3.3 +/- 3.3%). Conditions: topical, 240 h.
Test [30] concerns Cydia pomonella. Description: Antifeedant activity against Cydia pomonella (codling moth) at 80 mg/kg diet topically measured after 10 days of continuous exposure (reference value: 6.7 +/- 6.7%).

Each structure is given as a SMILES string.

In general, mortality refers to the share of the test organisms that died. `C/C=C(\C)C(=O)O[C@H]1C[C@@H](OC(C)=O)[C@@]2(C(=O)OC)CO[C@H]3[C@@H](O)[C@@](C)([C@]45O[C@@]4(C)[C@@H]4C[C@H]5O[C@@H]5OC=C[C@@]54O)[C@H]4[C@]1(CO[C@]4(O)C(=O)OC)[C@@H]32` [AZADIRACHTIN A]: the mortality at 20 mg/kg with Cydia pomonella [1] and with Cydia pomonella [12] was 100% throughout. The Activity is reported as 70% in the test on Cydia pomonella [2]; 100% in the test on Cydia pomonella [3]; 0 with Cydia pomonella [5]; 0 with Cydia pomonella [6]; 0.3 in the test with Cydia pomonella [7]; 100% in the test on Cydia pomonella [9]. The Activity is reported as 76.7% with Cydia pomonella [10] and 0 in the test with Cydia pomonella [11]. Besides, the results for the mortality at 2 mg/kg in the test on Cydia pomonella [4] and in the test on Cydia pomonella [8] were 50% and 66.7%, respectively.
`COC(=O)[C@]1(C)CC[C@]2(C)CC[C@]3(C)C4=CC=C5C(=CC(=O)C(O)=C5C)[C@]4(C)CC[C@@]3(C)[C@@H]2C1` [PRISTIMERIN]: the mortality at 80 mg/kg with Cydia pomonella [13] was 100%; with Cydia pomonella [15], 90%. Moreover, the Activity in the test on Cydia pomonella [14] came out at 0; in the test with Cydia pomonella [18], 90%; in the test with Cydia pomonella [19], 0; in the test with Cydia pomonella [20], 0; in the test on Cydia pomonella [21], 0; in the test with Cydia pomonella [22] it was 0. In addition, the Activity with Cydia pomonella [24] is listed as 0; with Cydia pomonella [25], 83.3%; in the test with Cydia pomonella [26], 93.3%; in the test with Cydia pomonella [27], 83.3%; in the test with Cydia pomonella [28], 96.7%; with Cydia pomonella [30], 90%. Besides, the mortality at 20 mg/kg in the test with Cydia pomonella [16] worked out at 60%; with Cydia pomonella [23] it was 20%. For the same molecule, the mortality at 40 mg/kg in the test on Cydia pomonella [17] was 33.3%; in the test on Cydia pomonella [29], 60%.
With `CC1=C(O)C(=O)C=C2C1=CC=C1[C@@]2(C)CC[C@@]2(C)[C@@H]3C[C@@H](C)C(=O)C[C@]3(C)CC[C@]12C` [TINGENONE], the mortality at 80 mg/kg is 23.3% in the test with Cydia pomonella [13] and 13.3% with Cydia pomonella [15]. In addition, the Activity in the test on Cydia pomonella [14] worked out at 3; in the test on Cydia pomonella [18], 100%; in the test on Cydia pomonella [19], 1.4; with Cydia pomonella [20] it was 0.7; with Cydia pomonella [21], 0; in the test on Cydia pomonella [22] it was 0. Besides, the Activity in the test on Cydia pomonella [24] came out at 0.3; in the test on Cydia pomonella [25] it was 10%; with Cydia pomonella [26], 0%; in the test with Cydia pomonella [27], 3.3%; with Cydia pomonella [28], 0%; in the test with Cydia pomonella [30] it was 93.3%. Further, the mortality at 20 mg/kg with Cydia pomonella [16] and with Cydia pomonella [23] was 0% each time. The figures for the mortality at 40 mg/kg in the test with Cydia pomonella [17] and with Cydia pomonella [29] were 3.3% and 10%, respectively.

The record behind these values is ChEMBL document CHEMBL3046339, “Insecticidal activity of Maytenus species (Celastraceae) nortriterpene quinone methides against codling moth, Cydia pomonella (L.) (Lepidoptera: tortricidae)” (2000).
